Assay results reported in publication PMC7316778 (Nature Communications, 2020).
Where “and” joins values, the source holds several entries; their conditions need not be identical. Equal entries are not always repeated. Where two headings read alike, the source gives them in different places.

What was measured:
Assay in all cases: SelectScreen kinase assay
CSNK1A1L = CSNK1A1L (Homo sapiens, UniProt Q8N752)
Method: (§1) Selectivity profiling assays were performed by the Invitrogen SelectScreen™ Services. […] The concentration of ATP was selected to be equal to the KM, unless indicated otherwise.

CSNK1E (CK1 epsilon) = CSNK1E (CK1 epsilon) (Homo sapiens, UniProt P49674); conditions: for Inhibition at 1 µM (%): CSNK1E (CK1 epsilon), ZLYTE, ATP Km app
Chain of CSNK1E (CK1 epsilon) (P49674 whole entry): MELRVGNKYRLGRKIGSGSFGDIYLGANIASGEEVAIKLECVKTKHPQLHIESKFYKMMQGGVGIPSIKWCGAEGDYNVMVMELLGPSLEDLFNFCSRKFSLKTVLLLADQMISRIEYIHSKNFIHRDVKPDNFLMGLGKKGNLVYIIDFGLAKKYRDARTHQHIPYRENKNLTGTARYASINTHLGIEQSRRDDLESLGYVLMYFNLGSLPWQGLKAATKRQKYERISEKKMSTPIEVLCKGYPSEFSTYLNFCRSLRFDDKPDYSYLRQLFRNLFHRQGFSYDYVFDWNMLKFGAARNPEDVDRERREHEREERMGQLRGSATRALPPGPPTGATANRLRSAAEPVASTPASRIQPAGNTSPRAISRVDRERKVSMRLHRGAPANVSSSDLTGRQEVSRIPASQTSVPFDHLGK
Method: as §1

ERBB2 (HER2) = ERBB2 (HER2) (Homo sapiens, UniProt P04626); conditions: for Inhibition at 1 µM (%): ERBB2 (HER2), ZLYTE, ATP Km app
Chain of ERBB2 (HER2) (P04626 23-1255): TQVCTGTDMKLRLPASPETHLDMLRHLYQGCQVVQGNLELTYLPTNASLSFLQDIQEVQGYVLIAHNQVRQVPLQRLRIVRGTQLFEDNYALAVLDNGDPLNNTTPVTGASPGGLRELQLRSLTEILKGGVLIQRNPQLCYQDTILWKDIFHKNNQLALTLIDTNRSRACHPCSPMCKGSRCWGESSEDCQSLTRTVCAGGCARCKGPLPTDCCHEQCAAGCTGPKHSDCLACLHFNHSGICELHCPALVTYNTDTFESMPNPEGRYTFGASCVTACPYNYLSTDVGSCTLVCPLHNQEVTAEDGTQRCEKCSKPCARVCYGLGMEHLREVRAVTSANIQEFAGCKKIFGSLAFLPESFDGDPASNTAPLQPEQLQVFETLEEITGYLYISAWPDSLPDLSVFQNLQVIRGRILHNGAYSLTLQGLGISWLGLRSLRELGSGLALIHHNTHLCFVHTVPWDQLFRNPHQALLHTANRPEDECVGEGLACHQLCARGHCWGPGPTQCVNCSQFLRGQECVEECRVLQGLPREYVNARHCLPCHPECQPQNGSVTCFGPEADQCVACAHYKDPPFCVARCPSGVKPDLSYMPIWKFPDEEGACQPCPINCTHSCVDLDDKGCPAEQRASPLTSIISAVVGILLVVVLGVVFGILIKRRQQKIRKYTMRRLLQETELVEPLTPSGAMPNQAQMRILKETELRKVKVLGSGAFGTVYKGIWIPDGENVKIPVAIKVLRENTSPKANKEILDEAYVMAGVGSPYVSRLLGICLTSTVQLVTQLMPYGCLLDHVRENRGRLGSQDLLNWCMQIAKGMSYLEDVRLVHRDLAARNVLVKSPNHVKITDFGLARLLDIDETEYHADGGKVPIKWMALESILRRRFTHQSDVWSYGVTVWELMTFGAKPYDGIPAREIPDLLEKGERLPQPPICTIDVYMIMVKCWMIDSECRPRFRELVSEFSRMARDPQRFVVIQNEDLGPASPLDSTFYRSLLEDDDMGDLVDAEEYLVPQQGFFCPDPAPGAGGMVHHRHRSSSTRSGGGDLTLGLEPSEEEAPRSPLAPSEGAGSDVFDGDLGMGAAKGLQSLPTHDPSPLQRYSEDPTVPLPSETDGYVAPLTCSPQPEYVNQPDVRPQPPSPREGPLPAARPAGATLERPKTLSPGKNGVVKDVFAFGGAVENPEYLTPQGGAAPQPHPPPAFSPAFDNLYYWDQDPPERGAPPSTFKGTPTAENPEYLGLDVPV
Method: as §1

MAP2K5 (MEK5) = molecular target: T1, MAP2K5 (MEK5) (Homo sapiens, UniProt Q13163)
T1 sequence (Q13163 1-448): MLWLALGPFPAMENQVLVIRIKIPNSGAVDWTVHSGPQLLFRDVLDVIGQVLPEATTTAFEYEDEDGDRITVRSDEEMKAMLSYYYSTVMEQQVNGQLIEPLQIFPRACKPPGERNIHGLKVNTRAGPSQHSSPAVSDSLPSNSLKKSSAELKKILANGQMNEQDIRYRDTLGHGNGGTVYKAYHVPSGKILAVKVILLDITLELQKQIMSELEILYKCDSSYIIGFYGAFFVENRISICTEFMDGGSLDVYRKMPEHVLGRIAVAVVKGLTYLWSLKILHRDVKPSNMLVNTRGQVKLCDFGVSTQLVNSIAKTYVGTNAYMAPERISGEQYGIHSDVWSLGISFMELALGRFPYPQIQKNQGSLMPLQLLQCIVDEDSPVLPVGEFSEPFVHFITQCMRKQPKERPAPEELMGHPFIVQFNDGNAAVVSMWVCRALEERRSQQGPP
Method: as §1

MAP4K2 (GCK) = MAP4K2 (GCK) (Homo sapiens, UniProt Q12851)
Method: as §1

NLK = NLK (Homo sapiens, UniProt Q9UBE8)
Method: as §1

NUAK2 = molecular target: T2, NUAK2 (Homo sapiens, UniProt Q9H093)
T2 sequence (Q9H093 1-628): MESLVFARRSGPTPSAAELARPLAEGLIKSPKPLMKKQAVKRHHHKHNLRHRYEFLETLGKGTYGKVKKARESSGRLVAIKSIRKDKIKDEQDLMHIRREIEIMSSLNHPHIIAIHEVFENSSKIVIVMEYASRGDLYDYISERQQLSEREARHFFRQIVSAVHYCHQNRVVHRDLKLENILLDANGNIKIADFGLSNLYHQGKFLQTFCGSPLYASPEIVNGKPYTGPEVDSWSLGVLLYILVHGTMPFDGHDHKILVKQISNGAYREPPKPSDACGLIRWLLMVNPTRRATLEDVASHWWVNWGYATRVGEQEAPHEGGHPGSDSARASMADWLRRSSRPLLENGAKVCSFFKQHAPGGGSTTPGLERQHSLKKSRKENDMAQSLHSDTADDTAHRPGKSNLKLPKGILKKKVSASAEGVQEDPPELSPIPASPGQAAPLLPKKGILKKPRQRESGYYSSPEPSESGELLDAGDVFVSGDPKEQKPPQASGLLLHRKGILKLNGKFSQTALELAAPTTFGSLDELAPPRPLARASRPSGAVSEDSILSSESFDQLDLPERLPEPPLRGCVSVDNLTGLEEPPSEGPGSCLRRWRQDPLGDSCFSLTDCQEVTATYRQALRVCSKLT
Method: as §1

PIK3CG (p110 gamma) = PIK3CG (p110 gamma) (Homo sapiens, UniProt P48736)
Chain of PIK3CG (p110 gamma) (P48736 whole entry): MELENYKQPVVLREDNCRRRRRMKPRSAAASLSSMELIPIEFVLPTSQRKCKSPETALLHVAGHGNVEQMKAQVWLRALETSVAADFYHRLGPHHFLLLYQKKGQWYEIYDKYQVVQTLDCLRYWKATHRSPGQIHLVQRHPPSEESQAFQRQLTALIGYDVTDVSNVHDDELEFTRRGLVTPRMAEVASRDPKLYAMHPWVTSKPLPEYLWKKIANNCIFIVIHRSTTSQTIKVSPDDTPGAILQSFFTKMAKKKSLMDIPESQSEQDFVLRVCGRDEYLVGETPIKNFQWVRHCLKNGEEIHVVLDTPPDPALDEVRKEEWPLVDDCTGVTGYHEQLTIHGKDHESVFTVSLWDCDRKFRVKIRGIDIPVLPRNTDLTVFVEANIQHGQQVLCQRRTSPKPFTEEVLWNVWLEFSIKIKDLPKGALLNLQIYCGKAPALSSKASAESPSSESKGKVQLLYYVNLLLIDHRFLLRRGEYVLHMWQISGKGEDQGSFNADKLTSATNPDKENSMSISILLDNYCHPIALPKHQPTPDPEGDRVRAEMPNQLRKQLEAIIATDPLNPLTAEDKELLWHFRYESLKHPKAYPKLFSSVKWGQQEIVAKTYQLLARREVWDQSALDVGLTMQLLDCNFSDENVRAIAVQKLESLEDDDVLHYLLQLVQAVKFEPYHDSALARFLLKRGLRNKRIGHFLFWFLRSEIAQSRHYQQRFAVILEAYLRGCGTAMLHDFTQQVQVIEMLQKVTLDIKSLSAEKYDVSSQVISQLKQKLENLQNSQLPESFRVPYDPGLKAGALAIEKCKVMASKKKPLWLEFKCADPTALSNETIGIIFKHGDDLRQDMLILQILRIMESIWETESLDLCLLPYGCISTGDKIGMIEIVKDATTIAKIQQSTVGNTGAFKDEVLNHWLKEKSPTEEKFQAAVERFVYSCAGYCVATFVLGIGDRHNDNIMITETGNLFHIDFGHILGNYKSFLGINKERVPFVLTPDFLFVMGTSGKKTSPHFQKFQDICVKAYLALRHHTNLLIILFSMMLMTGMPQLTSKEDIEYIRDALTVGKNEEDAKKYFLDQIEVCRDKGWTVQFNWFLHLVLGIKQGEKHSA
Method: as §1

PRKACG (PRKAC gamma) = PRKACG (PRKAC gamma) (Homo sapiens, UniProt P22612); conditions: for Inhibition at 1 µM (%): PRKACG (PRKAC gamma), LanthaScreen Binding
Chain of PRKACG (PRKAC gamma) (P22612 whole entry): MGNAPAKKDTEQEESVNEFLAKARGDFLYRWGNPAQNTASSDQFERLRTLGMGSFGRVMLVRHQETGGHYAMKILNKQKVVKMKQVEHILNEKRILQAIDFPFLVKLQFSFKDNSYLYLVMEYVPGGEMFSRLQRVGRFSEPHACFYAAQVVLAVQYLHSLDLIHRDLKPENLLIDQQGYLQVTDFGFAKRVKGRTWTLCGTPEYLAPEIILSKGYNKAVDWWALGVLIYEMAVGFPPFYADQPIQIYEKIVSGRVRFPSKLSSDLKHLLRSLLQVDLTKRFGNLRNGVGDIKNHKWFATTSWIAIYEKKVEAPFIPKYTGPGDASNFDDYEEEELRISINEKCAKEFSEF
Method: as §1

PRKG2 (PKG2) = PRKG2 (PKG2) (Homo sapiens, UniProt Q13237)
Method: as §1

PRKX = PRKX (Homo sapiens, UniProt P51817)
Chain of PRKX (P51817 whole entry): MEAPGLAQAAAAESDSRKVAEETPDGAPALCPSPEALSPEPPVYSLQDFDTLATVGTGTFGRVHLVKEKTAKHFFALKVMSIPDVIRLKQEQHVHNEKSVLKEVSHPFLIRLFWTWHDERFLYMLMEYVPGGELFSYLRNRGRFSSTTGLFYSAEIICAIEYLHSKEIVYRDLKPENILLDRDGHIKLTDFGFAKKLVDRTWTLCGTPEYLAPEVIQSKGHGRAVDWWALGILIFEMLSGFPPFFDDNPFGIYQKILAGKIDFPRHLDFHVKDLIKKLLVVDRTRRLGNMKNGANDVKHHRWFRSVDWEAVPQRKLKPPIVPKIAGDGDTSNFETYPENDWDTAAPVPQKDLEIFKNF
Method: as §1

RPS6KB1 (p70S6K) = RPS6KB1 (p70S6K) (Homo sapiens, UniProt P23443)
Chain of RPS6KB1 (p70S6K) (P23443 whole entry): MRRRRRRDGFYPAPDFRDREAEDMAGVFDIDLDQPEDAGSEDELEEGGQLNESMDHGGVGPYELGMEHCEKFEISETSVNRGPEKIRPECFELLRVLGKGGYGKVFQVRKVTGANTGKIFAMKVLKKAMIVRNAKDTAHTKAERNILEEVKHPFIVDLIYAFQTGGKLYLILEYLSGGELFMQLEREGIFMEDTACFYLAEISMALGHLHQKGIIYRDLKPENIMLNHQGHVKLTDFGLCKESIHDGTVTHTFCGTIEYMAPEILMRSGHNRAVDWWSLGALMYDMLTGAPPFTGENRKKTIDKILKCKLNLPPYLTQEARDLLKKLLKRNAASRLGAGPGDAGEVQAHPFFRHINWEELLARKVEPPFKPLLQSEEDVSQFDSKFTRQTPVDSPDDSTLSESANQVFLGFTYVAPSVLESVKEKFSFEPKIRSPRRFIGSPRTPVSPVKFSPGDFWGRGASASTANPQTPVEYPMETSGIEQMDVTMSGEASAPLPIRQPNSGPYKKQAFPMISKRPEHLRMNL
Method: as §1

SRMS (Srm) = SRMS (Srm) (Homo sapiens, UniProt Q9H3Y6)
Chain of SRMS (Srm) (Q9H3Y6 whole entry): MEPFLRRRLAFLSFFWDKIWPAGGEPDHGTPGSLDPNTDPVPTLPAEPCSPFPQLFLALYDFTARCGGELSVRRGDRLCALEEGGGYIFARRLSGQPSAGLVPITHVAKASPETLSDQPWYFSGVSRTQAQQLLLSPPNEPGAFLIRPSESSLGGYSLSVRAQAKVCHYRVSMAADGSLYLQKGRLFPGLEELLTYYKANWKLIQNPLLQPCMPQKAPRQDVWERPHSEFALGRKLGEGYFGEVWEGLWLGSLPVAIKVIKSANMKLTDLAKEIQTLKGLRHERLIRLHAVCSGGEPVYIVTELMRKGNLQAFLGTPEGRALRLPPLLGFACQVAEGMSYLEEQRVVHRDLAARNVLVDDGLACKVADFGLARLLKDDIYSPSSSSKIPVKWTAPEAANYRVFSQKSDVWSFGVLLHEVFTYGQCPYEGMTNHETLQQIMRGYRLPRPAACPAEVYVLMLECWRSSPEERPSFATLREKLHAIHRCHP
Method: as §1

[1] = 1 h, 1 μM WEL028, 1 h preincubation
[2] = 1 µM, ZLYTE, ATP Km app, listed as WEL028, 1 µM

Chain of CSNK1A1L (Q8N752 whole entry): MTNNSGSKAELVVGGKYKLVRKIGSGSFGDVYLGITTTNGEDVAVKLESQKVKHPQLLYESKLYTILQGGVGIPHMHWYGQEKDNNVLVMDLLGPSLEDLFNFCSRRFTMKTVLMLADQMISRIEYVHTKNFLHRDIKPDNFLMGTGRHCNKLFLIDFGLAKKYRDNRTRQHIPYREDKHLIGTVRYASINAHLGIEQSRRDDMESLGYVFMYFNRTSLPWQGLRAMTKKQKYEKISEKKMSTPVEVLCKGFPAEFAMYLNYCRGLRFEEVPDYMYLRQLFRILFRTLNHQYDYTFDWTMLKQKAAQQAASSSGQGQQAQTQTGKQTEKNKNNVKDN

C#CCOc1ccc(Nc2ncc(Cl)c(Nc3ccccc3NC(=O)C=C)n2)c(OC)c1 [Compound 6]
inhibition at 1 µM (CSNK1A1L; 1 h): 5%
inhibition at 1 µM (CSNK1A1L; read-out: Inhibition at 1 µM (%)): 5%
inhibition at 1 µM (CSNK1E (CK1 epsilon); [1]): 9%
Inhibition at 1 µM (%) (CSNK1E (CK1 epsilon)): 14%
Inhibition at 1 µM (%) (CSNK1E (CK1 epsilon); listed as WEL028, 1 µM): 4%
inhibition at 1 µM (ERBB2 (HER2); [1]): 2%
Inhibition at 1 µM (%) (ERBB2 (HER2)): -2%
Inhibition at 1 µM (%) (ERBB2 (HER2); listed as WEL028, 1 µM): 6%
inhibition at 1 µM (MAP2K5 (MEK5); [1]): 53%
Inhibition at 1 µM (%) (MAP2K5 (MEK5); MAP2K5 (MEK5), 1 µM, LanthaScreen Binding, listed as WEL028, 1 µM): 52%
inhibition at 1 µM (MAP2K5 (MEK5); read-out: Inhibition at 1 µM (%), MAP2K5 (MEK5), 1 µM, LanthaScreen Binding): 53%
inhibition at 1 µM (MAP4K2 (GCK); [1]): -12%
Inhibition at 1 µM (%) (MAP4K2 (GCK); MAP4K2 (GCK), 1 µM, ZLYTE, ATP Km app): -23%
inhibition at 1 µM (NLK; [1]): 3%
inhibition at 1 µM (NLK; read-out: Inhibition at 1 µM (%), NLK, 1 µM, LanthaScreen Binding): 4%
Inhibition (%) (NUAK2; 1 μM WEL028, 1 h preincubation): 24%
Inhibition at 1 µM (%) (NUAK2; NUAK2, 1 µM, LanthaScreen Binding, listed as WEL028, 1 µM): 30%
inhibition at 1 µM (NUAK2; read-out: Inhibition at 1 µM (%), NUAK2, 1 µM, LanthaScreen Binding): 18%
inhibition at 1 µM (PIK3CG (p110 gamma); [1]): 13%
Inhibition at 1 µM (%) (PIK3CG (p110 gamma); PIK3CG (p110 gamma), 1 µM, Adapta, ATP Km app, listed as WEL028, 1 µM): 18%
inhibition at 1 µM (PIK3CG (p110 gamma); read-out: Inhibition at 1 µM (%), PIK3CG (p110 gamma), 1 µM, Adapta, ATP Km app): 9%
inhibition at 1 µM (PRKACG (PRKAC gamma); [1]): 3%
Inhibition at 1 µM (%) (PRKACG (PRKAC gamma)): 2%
Inhibition at 1 µM (%) (PRKACG (PRKAC gamma); listed as WEL028, 1 µM): 5%
Inhibition at 1 µM (%) (PRKG2 (PKG2); 1 µM, ZLYTE, ATP Km app): 13%
inhibition at 1 µM (PRKG2 (PKG2); [1]): 4%
Inhibition at 1 µM (%) (PRKX; [2]): -6% and 0%
inhibition at 1 µM (PRKX; [1]): -3%
Inhibition at 1 µM (%) (RPS6KB1 (p70S6K); 1 µM, ZLYTE, ATP Km app): 15%
inhibition at 1 µM (RPS6KB1 (p70S6K); [1]): 4%
Inhibition at 1 µM (%) (SRMS (Srm); [2]): 8%
inhibition at 1 µM (SRMS (Srm); [1]): 7%
inhibition at 1 µM (SRMS (Srm); read-out: Inhibition at 1 µM (%), 1 µM, ZLYTE, ATP Km app): 6%
